Assay results reported in US6737383B1, “Herbicidal oxadiazolidines” (priority 1999, dated 2004).

Legend:
bedstraw = assay: Test B pre/postemergence bedstraw; format: in vivo, Galium aparine
Procedure, shortened: (§1)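 Test chemicals in a non-phytotoxic solvent mixture with surfactant were sprayed preemergence onto planted seeds and postemergence onto plants 2 to 18 cm tall (1- to 4-leaf stage). After twelve to sixteen days in a greenhouse, injury was visually rated against untreated controls from 0 (no effect) to 10 (complete control).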

blackgrass = assay: Test B pre/postemergence blackgrass; format: in vivo, Alopecurus myosuroides
Procedure, shortened: as §1

surinam grass = assay: Test B pre/postemergence surinam grass; format: in vivo, Brachiaria decumbens
Procedure, shortened: as §1

cocklebur = assay: Test B pre/postemergence cocklebur; format: in vivo, Xanthium strumarium
Procedure, shortened: as §1

corn = assay: Test B pre/postemergence corn; format: in vivo, Zea mays
Procedure, shortened: as §1

morningglory = assay: Test B pre/postemergence morningglory; format: in vivo, Ipomoea hederacea
Procedure, shortened: as §1

pigweed = assay: Test B pre/postemergence pigweed; format: in vivo, Amaranthus retroflexus
Procedure, shortened: as §1

rape = assay: Test B pre/postemergence rape; format: in vivo, Brassica napus
Procedure, shortened: as §1

soybean = assay: Test B pre/postemergence soybean; format: in vivo, Glycine max
Procedure, shortened: as §1

sugar beet = assay: Test B pre/postemergence sugar beet; format: in vivo, Beta vulgaris
Procedure, shortened: as §1

velvetleaf = assay: Test B pre/postemergence velvetleaf; format: in vivo, Abutilon theophrasti
Procedure, shortened: as §1

wild oat = assay: Test B pre/postemergence wild oat; format: in vivo, Avena fatua
Procedure, shortened: as §1

purple nutsedge = assay: Test B pre/postemergence purple nutsedge; format: in vivo, Cyperus rotundus
Procedure, shortened: as §1

rice = assay: Test B flood test rice; format: in vivo, Oryza sativa
Procedure, shortened: (§2)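 Each value is a visual injury score relative to controls, with 10 meaning complete control and 0 no effect. Evaluation took place twelve to sixteen days after the 2-leaf-stage plants were treated and kept in the greenhouse.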

smallflower flatsedge = assay: Test B flood test smallflower flatsedge; format: in vivo, Cyperus difformis
Procedure, shortened: as §2

bamyardgrass = assay: Test B flood test barnyardgrass; format: in vivo, Echinochloa crus-galli
Procedure, shortened: as §2

[1] = Preemergence, Rate 62 g/ha, scale of 0 to 10 where 0 is no effect and 10 is complete control
[2] = Preemergence, Rate 250 g/ha, scale of 0 to 10 where 0 is no effect and 10 is complete control
[3] = Preemergence, Rate 500 g/ha, scale of 0 to 10 where 0 is no effect and 10 is complete control
[4] = Rate 62 g/ha, Postemergence, scale of 0 to 10 where 0 is no effect and 10 is complete control
[5] = Rate 125 g/ha, Postemergence, scale 0 to 10
[6] = Rate 125 g/ha, Preemergence, scale of 0 to 10 where 0 is no effect and 10 is complete control
[7] = Rate 500 g/ha, Postemergence, scale 0 to 10, 0 no effect, 10 complete control
[8] = Rate 62 g/ha, headed Pre-emergence (flood test species), scale 0 to 10 (0 no effect, 10 complete control)
[9] = Rate 125 g/ha, Pre-emergence, flood test species, scale 0 to 10 where 0 is no effect and 10 is complete control
[10] = Rate 250 g/ha, Pre-emergence, flood-test species, scale 0 to 10, 0 is no effect, 10 is complete control
[11] = Rate 500 g/ha, Pre-emergence, flood test species, scale 0 to 10 (0 no effect, 10 complete control)

CCC(C)N(C(=O)n1oc(=O)n(-c2ccccc2C)c1=O)c1ccc(F)cc1 (stereo not shown) [Compound 239]
Bedstraw plant response rating (bedstraw; [1]): 0
Bedstraw plant response rating (bedstraw; [2]): 0
Plant response rating, Bedstraw (bedstraw; [3]): 0
Bedstraw plant response rating (bedstraw; [4]): 0
Bedstraw plant response rating (bedstraw; [5]): 3
Bedstraw plant response rating (bedstraw; [6]): 0
Plant response rating (0 to 10; 0 is no effect, 10 is complete control), Bedstraw (bedstraw; Rate 250 g/ha, Postemergence): 3
Bedstraw plant response rating (bedstraw; [7]): 3
Blackgrass plant response rating (blackgrass; [1]): 0
Blackgrass plant response rating (blackgrass; [2]): 4
Plant response rating, Blackgrass (blackgrass; [3]): 4
Blackgrass plant response rating (blackgrass; [4]): 0
Blackgrass plant response rating (blackgrass; [5]): 0
Blackgrass plant response rating (blackgrass; [6]): 3
Plant response rating (0 to 10; 0 is no effect, 10 is complete control), Blackgrass (blackgrass; Rate 250 g/ha, Postemergence): 2
Blackgrass plant response rating (blackgrass; [7]): 3
B. signalgrass plant response rating (surinam grass; [1]): 0
B. signalgrass plant response rating (surinam grass; Preemergence, Rate 250 g/ha, scale 0 to 10, 0 is no effect, 10 is complete control): 4
Plant response rating, B. signalgrass (surinam grass; [3]): 5
B. signalgrass plant response rating (surinam grass; [4]): 0
B. signalgrass plant response rating (surinam grass; Rate 125 g/ha, Postemergence, scale 0 (no effect) to 10 (complete control)): 0
B. signalgrass plant response rating (surinam grass; [6]): 0
Plant response rating (0 to 10; 0 is no effect, 10 is complete control), B. signalgrass (surinam grass; Rate 250 g/ha, Postemergence): 0
B. signalgrass plant response rating (surinam grass; [7]): 0
Cocklebur plant response rating (cocklebur; [1]): 0
Cocklebur plant response rating (cocklebur; [2]): 0
Plant response rating, Cocklebur (cocklebur; [3]): 0
Cocklebur plant response rating (cocklebur; [4]): 0
Cocklebur plant response rating (cocklebur; [5]): 1
Cocklebur plant response rating (cocklebur; [6]): 0
Plant response rating (0 to 10; 0 is no effect, 10 is complete control), Cocklebur (cocklebur; Rate 250 g/ha, Postemergence): 1
Cocklebur plant response rating (cocklebur; [7]): 1
Corn plant response rating (corn; [1]): 0
Corn plant response rating (corn; [2]): 0
Plant response rating, Corn (corn; [3]): 0
Corn plant response rating (corn; [4]): 0
Corn plant response rating (corn; [5]): 0
Corn plant response rating (corn; [6]): 0
Plant response rating (0 to 10; 0 is no effect, 10 is complete control), Corn (corn; Rate 250 g/ha, Postemergence): 0
Corn plant response rating (corn; [7]): 0
Morningglory plant response rating (morningglory; [1]): 0
Morningglory plant response rating (morningglory; [2]): 0
Plant response rating, Morningglory (morningglory; [3]): 0
Morningglory plant response rating (morningglory; [4]): 1
Morningglory plant response rating (morningglory; [6]): 0
Plant response rating (0 to 10; 0 is no effect, 10 is complete control), Morningglory (morningglory; Rate 250 g/ha, Postemergence): 3
Morningglory plant response rating (morningglory; [7]): 9
Redroot pigweed plant response rating (pigweed; [1]): 0
Redroot pigweed plant response rating (pigweed; [2]): 0
Plant response rating, Redroot pigweed (pigweed; [3]): 0
Redroot pigweed plant response rating (pigweed; [4]): 0
Redroot pigweed plant response rating (pigweed; [6]): 0
Plant response rating (0 to 10; 0 is no effect, 10 is complete control), Redroot pigweed (pigweed; Rate 250 g/ha, Postemergence): 3
Redroot pigweed plant response rating (pigweed; [7]): 7
Rape plant response rating (rape; [1]): 0
Rape plant response rating (rape; [2]): 0
Plant response rating, Rape (rape; [3]): 0
Rape plant response rating (rape; [4]): 0
Rape plant response rating (rape; [6]): 0
Plant response rating (0 to 10; 0 is no effect, 10 is complete control), Rape (rape; Rate 250 g/ha, Postemergence): 0
Rape plant response rating (rape; [7]): 0
Soybean plant response rating (soybean; [1]): 0
Soybean plant response rating (soybean; [2]): 0
Plant response rating, Soybean (soybean; [3]): 0
Soybean plant response rating (soybean; [4]): 1
Soybean plant response rating (soybean; [6]): 0
Soybean plant response rating (soybean; [7]): 3
Sugarbeets plant response rating (sugar beet; [1]): 0
Sugarbeets plant response rating (sugar beet; [2]): 0
Plant response rating, Sugarbeets (sugar beet; [3]): 0
Sugarbeets plant response rating (sugar beet; [4]): 0
Sugarbeets plant response rating (sugar beet; [6]): 0
Sugarbeets plant response rating (sugar beet; [7]): 0
Velvetleaf plant response rating (velvetleaf; [1]): 0
Velvetleaf plant response rating (velvetleaf; [2]): 2
Plant response rating, Velvetleaf (velvetleaf; [3]): 5
Velvetleaf plant response rating (velvetleaf; [4]): 0
Velvetleaf plant response rating (velvetleaf; [6]): 0
Velvetleaf plant response rating (velvetleaf; [7]): 3
Wild oats plant response rating (wild oat; [1]): 0
Wild oats plant response rating (wild oat; [2]): 3
Plant response rating, Wild oats (wild oat; [3]): 3
Wild oats plant response rating (wild oat; [4]): 0
Wild oats plant response rating (wild oat; [6]): 0
Wild oats plant response rating (wild oat; [7]): 0
Nutsedge plant response rating (purple nutsedge; [1]): 0
Plant response rating, Nutsedge (purple nutsedge; [3]): 0
Nutsedge plant response rating (purple nutsedge; [4]): 0
Nutsedge plant response rating (purple nutsedge; [6]): 0
Plant response rating (0 to 10; 0 is no effect, 10 is complete control), Nutsedge (purple nutsedge; Rate 250 g/ha, Postemergence): 0
Nutsedge plant response rating (purple nutsedge; [7]): 0
Rice plant response rating (rice; [8]): 0
Rice plant response rating (rice; [9]): 0
Rice plant response rating (rice; [10]): 0
Rice plant response rating (rice; [11]): 0
S. Flatsedge plant response rating (smallflower flatsedge; [8]): 0
S. Flatsedge plant response rating (smallflower flatsedge; [9]): 0
S. Flatsedge plant response rating (smallflower flatsedge; [10]): 0
S. Flatsedge plant response rating (smallflower flatsedge; [11]): 0
Barnyardgrass plant response rating (bamyardgrass; [8]): 0
Barnyardgrass plant response rating (bamyardgrass; [9]): 0
Barnyardgrass plant response rating (bamyardgrass; [10]): 0
Barnyardgrass plant response rating (bamyardgrass; [11]): 0
